{
  "source": "patent US6683166B2",
  "about": "“Modified internucleoside linkages (ii)” (ISIS Pharmaceuticals, Inc., priority 1992, dated 2004)",
  "format_in_all_cases": "binding",
  "key": {"[1]": {"test_system": "Single Stranded Target (RNA)", "test": "Thermal denaturation Tm, DNA-RNA-duplex", "description": "(§1) RNA and DNA duplex and DNA-triplex experiments utilizing certain desirable modified internucleoside linkages of this invention were conducted to determine those linkages' effect on the Tm values of the resulting oligonucleotides.\n(§2) These experiments were carried out in a buffered solution (140 mM KCl, 5 mM Na2HPO4, and 1 mM MgCl2) at pH=6.6 (except for the 2′-5′ carbamate which was buffered at pH=7.0) according to the following protocol: 0.15 ODs of the target RNA/DNA was combined with 0.1 OD of the oligomer being assayed in a sterile eppendorf tube and dried. To this mixture was added 300 λ of Tm buffer and the solution was stirred. Tm values were then determined by a first derivative plot of absorbance versus temperature. Thermal denaturation analysis was carried out-with a heating rate of 0.25° C./min and absorbance was monitored at 260 nm.\n(§3) The test oligomers that were synthesized for analysis were of the following sequence:\n(§4) 5′-TC^mTC^mTC^mTC^mTC^mT^TT^TT-3′\n(§5) where T=thymidine, C^m=5-methyl-2′-deoxycytidine, and T^T=a thymidine-thymidine dimer with an experimental linkage of the structure detailed in the table below. All other linkages were phosphodiester."}, "[2]": {"test_system": "Single Stranded Target (DNA)", "test": "Thermal denaturation Tm, DNA-duplex", "description": "as §1, §2, §3, §4, §5"}, "[3]": {"test_system": "Target Duplex Sequence (DNA) 5′ AGAGAGAGAGAAAAA 3′", "test": "Thermal denaturation Tm, DNA-Triplex", "description": "as §1, §2, §3, §4, §5"}, "[4]": {"settings": "Tm change per substituted linkage vs control of the same group"}},
  "data": [
    {"substance": "5′-2′ thioformacetal: Test oligomer 5′-TCmTCmTCmTCmTCmT^TT^TT-3′, the two T^T dimers having a 5′-2′ thioformacetal linkage; other linkages phosphodiester", "values": [
      {"measurement": "DNA-RNA-duplex Tm", "setting": "[1]; 140 mM KCl, 5 mM Na2HPO4, 1 mM MgCl2, pH 6.6 (2′-5′ carbamate buffered at pH 7.0)", "result": 58.5},
      {"measurement": "DNA-RNA-duplex ° C./subst", "setting": "[1]; [4]", "result": "−1.5", "unit": "° C./subst"},
      {"measurement": "DNA-duplex Tm", "setting": "[2]; 140 mM KCl, 5 mM Na2HPO4, 1 mM MgCl2, pH 6.6 (2′-5′ carbamate buffered at pH 7.0), first derivative of A260 vs temperature", "result": 53.0},
      {"measurement": "DNA-duplex ° C./subst", "setting": "[2]; [4]", "result": "+1.8 ° C./subst"},
      {"measurement": "DNA-Triplex Tm", "setting": "[3]; 140 mM KCl, 5 mM Na2HPO4, 1 mM MgCl2, pH 6.6", "result": 39.0},
      {"measurement": "DNA-Triplex ° C./subst", "setting": "[3]; pH 6.6, Tm change per substituted linkage vs control", "result": 0, "unit": "° C./subst"}
    ]}
  ]
}
